The source of these data is US9936724B2, “Sweetener compositions” (Givaudan, S.A., priority 2014, dated 2018).

Peptide text beside a SMILES is read from it.

For data set [1] the following is noted: relative to sucrose; cited from earlier work.
Data set [2] is described as follows: Solubility in water at room temperature. The format is physicochemical. The settings on record: for solubility: in water at room temperature; for solubility in water, comparison in words: compared with other dihydrochalcones / with 3-phenyl-1-(2,4,6-trimethoxyphenyl)propan-1-one.
Data set [3] can be described thus: Masking of off-notes of high-intensity sweeteners (comparison of dihydrochalcones). To be noted: used at soluble concentrations.

For `O=S(=O)([O-])NC1CCCCC1.[Na+]` [sodium cyclamate], in data set [1], the “times sweeter than sucrose” value was “about 30 times”.
On to `OC[C@H]1O[C@H](O[C@]2(CCl)O[C@H](CCl)[C@@H](O)[C@@H]2O)[C@H](O)[C@@H](O)[C@H]1Cl` [sucralose], for which the “times sweeter than sucrose” value in data set [1] was “about 600 times”.
For `COc1cc(OC)c(C(=O)CCc2ccccc2)c(OC)c1` [3-phenyl-1-(2,4,6-trimethoxy-phenyl)propan-1-one], in data set [2], the solubility entry is “greater than 30 ppm” and the “solubility in water, comparison in words” value is “much higher solubility in water than other dihydrochalcones”. Besides, in data set [3], the “masking properties / masking effect” value is reported as “particularly good masking properties”.
As for thaumatin, in data set [1], the “times sweeter than sucrose” value is listed as “about 2 000 times”.
As for `COc1ccc(CCC(=O)c2c(O)cc(OC)cc2OC)cc1` [1-(2-hydroxy-4,6-dimethoxyphenyl)-3-(4-methoxyphenyl)propan-1-one], the solubility entry in data set [2] is reported as “below 5 ppm”. In addition, the “masking properties / masking effect” value in data set [3] is “significantly lower masking effect”.
Consider `COC(=O)[C@H](Cc1ccccc1)NC(=O)[C@@H](N)CC(=O)O` [Aspartame] (H-Asp-Phe-OMe), for which the “times sweeter than sucrose” value in data set [1] was 160-200 times.
Regarding `O=C(CCc1ccc(O)cc1)c1c(O)cc(O)cc1O` [phloretin, 3-(4-hydroxyphenyl)-1-(2,4,6-trihydroxyphenyl)propan-1-one], the “solubility in water, comparison in words” value in data set [2] is reported as “soluble to a similar extent”. Also, in data set [3], the “masking properties / masking effect” value is listed as “did not provide masking properties”.
